Results on 6 compounds are retold here after patent US20260258003A1, “SLACK-ACTIVATING COMPOUNDS AND THEIR MEDICAL USE” (Johann Wolfgang Goethe-Universität Frankfurt am Main, priority 2023, published 2026).

Series [1] deals with heart rate and breath rate of mice. As to the kind of experiment: Pulse oximetry on conscious, freely moving mice. It counts as in vivo. To be noted: 10 mg/kg i.p., observation period of 30 min. The procedure:
Finally, potential side effects of Compound 6 were assessed by measuring cardiovascular functions by pulse oximetry.

Series [2] addresses T1, human Slack (Homo sapiens, UniProt Q5JUK3).
T1 construct: host or cells: HEK293
T1 sequence (Q5JUK3 1-1230): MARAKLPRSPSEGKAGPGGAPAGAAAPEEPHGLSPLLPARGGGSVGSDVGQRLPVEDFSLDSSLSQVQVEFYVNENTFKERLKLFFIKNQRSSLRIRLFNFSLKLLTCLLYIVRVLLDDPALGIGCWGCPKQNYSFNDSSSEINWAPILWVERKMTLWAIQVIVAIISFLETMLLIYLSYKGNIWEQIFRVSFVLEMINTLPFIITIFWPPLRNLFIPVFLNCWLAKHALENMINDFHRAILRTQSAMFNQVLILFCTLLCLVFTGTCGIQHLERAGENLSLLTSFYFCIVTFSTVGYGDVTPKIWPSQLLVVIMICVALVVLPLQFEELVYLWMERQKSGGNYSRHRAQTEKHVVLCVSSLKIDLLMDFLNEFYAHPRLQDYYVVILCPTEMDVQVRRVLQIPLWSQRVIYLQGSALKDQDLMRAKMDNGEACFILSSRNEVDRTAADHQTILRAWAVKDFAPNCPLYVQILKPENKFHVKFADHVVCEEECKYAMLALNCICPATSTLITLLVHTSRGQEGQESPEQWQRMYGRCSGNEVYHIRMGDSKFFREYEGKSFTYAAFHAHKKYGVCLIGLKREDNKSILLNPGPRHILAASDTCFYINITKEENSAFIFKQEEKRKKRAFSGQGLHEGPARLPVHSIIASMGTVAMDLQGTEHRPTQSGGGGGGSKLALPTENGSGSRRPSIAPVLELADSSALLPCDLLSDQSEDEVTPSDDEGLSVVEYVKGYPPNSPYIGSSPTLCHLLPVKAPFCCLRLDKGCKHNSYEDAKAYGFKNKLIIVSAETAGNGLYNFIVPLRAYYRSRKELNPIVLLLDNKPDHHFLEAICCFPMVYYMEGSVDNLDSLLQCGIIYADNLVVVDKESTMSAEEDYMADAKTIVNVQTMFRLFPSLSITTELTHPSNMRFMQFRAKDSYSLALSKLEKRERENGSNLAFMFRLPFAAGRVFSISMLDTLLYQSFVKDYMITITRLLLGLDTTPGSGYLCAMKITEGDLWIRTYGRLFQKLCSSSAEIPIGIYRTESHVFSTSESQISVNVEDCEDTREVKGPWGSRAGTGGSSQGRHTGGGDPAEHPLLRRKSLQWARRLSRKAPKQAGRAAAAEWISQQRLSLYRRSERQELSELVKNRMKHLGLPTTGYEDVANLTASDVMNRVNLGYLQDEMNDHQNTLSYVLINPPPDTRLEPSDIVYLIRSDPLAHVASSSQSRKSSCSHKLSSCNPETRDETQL
The series is described as follows: FluxOR potassium ion channel assay in HEK-Slack cells. To be noted: Na+ free buffer with 2 mM Ca2+, 2 mM Mg2+, 0.03% DMSO, mean with 95% confidence interval; for EC50: read-out: FluxOR assay EC50; for Emax: read-out: FluxOR assay EMAX (% relative to Loxapine). It counts as cell-based. As for the experimental part: For that purpose, cultured HEK293 cells stably expressing human Slack (herein referred to as HEK-Slack cells) were incubated with compounds in a Na^+ free buffer to prevent compound-independent Slack activation by monovalent cations^7,19.
In detail, in these experiments, the Slack-activating efficacy and potency of the novel compounds was determined using a commercial FluxOR™ Potassium Ion Channel Assay (Invitrogen). HEK293 cells stably expressing human Slack (herein referred to as HEK-Slack cells) were plated at a density of 50,000 cells per well of a poly-D-lysine coated (75 μg/mL, Sigma Aldrich) 96-well, black-walled microplate with clear bottom (Greiner Bio-One) in DMEM containing 10% FBS and 1% penicillin/streptomycin 24 hours prior to assaying.
On the experiment day, cells were loaded with FluxOR™ dye according to the manufacturer's protocol. A Na^+-free assay buffer containing 140 mM choline chloride, 5 mM KCl, 2 mM CaCl2), 2 mM MgSO4, 10 mM HEPES, 5.55 mM glucose, adjusted to pH 7.4 with KOH, was used. To reduce background fluorescence all assay components were complemented by 10% BackDrop™ Background Suppressor (Invitrogen). […]
After washing steps, cells were incubated with compounds for 30 min at 37° C. All compounds were prepared as a 33.3 mM DMSO stock and diluted at the experimental day to a final concentration of 100, 50, 25, 12.5, 6.25, and 3.125 μM in assay buffer containing […] DMSO. […] After stimulation with Tl2SO4 solution, the fluorescence was measured over 100 s (excitation 485 nm, emission 525 nm) using an Infinite M200 Microplate Reader (Tecan). Assays run in triplicate and the ratio to baseline fluorescence was calculated for all time points. Dose-response curves comprising six concentrations were performed in triplets using fluorescence/fluorescenceBaseline ratios at the 100th second.

In series [3] the test system is chloroquine-induced scratching behavior of mice. The series is described as follows: Chloroquine-induced itch model, topical application of creme. It counts as in vivo. The following applies: 5% in hydrophilic creme (Basiscreme DAC), topical 30 min prior to s.c. chloroquine. The procedure:
Animals: Experiments were performed in 8-16 week-old C57BL/6N mice (Charles River, Sulzfeld, Germany) of either sex. The animals were housed under a 12 h light/dark cycle with access to food and water ad libitum. All experiments adhered to the Animal Research: Reporting on In Vivo Experiments (ARRIVE) guidelines and were approved by and conducted in accordance with the regulations of the local Animal Welfare authorities (Regierungspräsidium Darmstadt, Germany; approval number V54-19c20/15-FR/2011). All behavioral studies were conducted during the light cycle of the day at room temperature (20-24° C.) by an observer blinded for the treatment of the animals.
Drug formulation: A creme formulation of Compound 6 and Compound 21 was prepared by mixing a hydrophilic creme (Basiscreme DAC) with 5% of each Slack activator.
Behavioral assessment: Three to four days before the day of the experiment, the fur on the dorsolateral aspect of the neck was shaved under brief isoflurane anesthesia. On the testing day, Compound 6 creme, Compound 21 creme, or creme vehicle were applied topically on the shaved region of the neck under brief isoflurane anesthesia and the mice were habituated to a Plexiglas cylinder (30 cm in diameter) for 30 min immediately thereafter. […] The number of scratching bouts directed towards the nape of the neck was assessed over 30 min by videotaping.

Take `CN1CC[C@]23c4c5ccc(O)c4O[C@H]2[C@@H](O)C=C[C@H]3[C@H]1C5` [morphine, reference compound]: in series [1], the breath rate entry was “significantly reduced” and the heart rate result is reported as “significantly reduced”.
A word on the EC50: it is the concentration at which the effect is half-maximal. Usually Emax stands for the greatest response seen or fitted, relative to the assay's reference. In the case of `O=c1nc(CN2CCCN(C3=Nc4ccccc4Oc4ccc(C(F)(F)F)cc43)CC2)[nH][nH]1` [Compound 20, 5-((4-(2-(Trifluoromethyl)dibenzo[b,f][1,4]oxazepin-11-yl)-1,4-diazepan-1-yl)methyl)-1,2-dihydro-3H-1,2,4-triazol-3-one], in series [2], the EC50 was 26.2 µM and the Emax worked out at 129%.
Taken in the same sequence, the figures for `O=c1nc(CN2CCN(C3=Nc4cc(F)ccc4Oc4ccc(C(F)(F)F)cc43)CC2)[nH][nH]1` [Compound 18, 5-((4-(8-Fluoro-2-(trifluoromethyl)dibenzo[b,f][1,4]oxazepin-11-yl)piperazin-1-yl)methyl)-1,2-dihydro-3H-1,2,4-triazol-3-one] were 11.2 µM and 127%.
With `OCCN1CCN(C2=Nc3cc(F)ccc3Oc3ccc(C(F)(F)F)cc32)CC1` [Compound 21, 2-(4-(8-Fluoro-2-(trifluoromethyl)dibenzo[b,f][1,4]oxazepin-11-yl)piperazin-1-yl) ethan-1-ol], in series [2], the EC50 is 10.5 µM and the Emax turned out to be 264%. Besides, the “chloroquine-induced scratching behavior after topical application” value in series [3] is listed as “significantly ameliorated scratching behavior”.
For `O=c1nc(CN2CCN(C3=Nc4cc(F)ccc4Oc4ccc(Cl)cc43)CC2)[nH][nH]1` [Compound 19, 5-((4-(2-Chloro-8-fluorodibenzo[b,f][1,4]oxazepin-11-yl)piperazin-1-yl)methyl)-1,2-dihydro-3H-1,2,4-triazol-3-one], in series [2], the EC50 is 21.1 µM and the Emax stood at 117%.
Taken in the same sequence, the figures for `O=c1nc(CN2CCN(C3=Nc4ccccc4Oc4ccc(C(F)(F)F)cc43)CC2)[nH][nH]1` [Compound 11, 5-((4-(2-(Trifluoromethyl)dibenzo[b,f][1,4]oxazepin-11-yl)piperazin-1-yl)methyl)-1,2-dihydro-3H-1,2,4-triazol-3-one] were 10.7 µM and 199%.
